# Experimental data: patent US20200199102A1, “COMPOUNDS THAT PARTICIPATE IN COOPERATIVE BINDING AND USES THEREOF” (Revolution Medicines, Inc., priority 2017, published 2020)
# Where a SMILES comes first, the peptide text is derived from it. [ ]: non-standard residue; d: D form. MeBmt = C/C=C/C[C@@H](C)[C@@H](O)[C@H](NC)C(=O)O; NMeY = CN[C@@H](Cc1ccc(O)cc1)C(=O)O; NMeF = CN[C@@H](Cc1ccccc1)C(=O)O; NMeI = CC[C@H](C)[C@H](NC)C(=O)O; NMeT = CN[C@H](C(=O)O)[C@@H](C)O; NMeL = CN[C@@H](CC(C)C)C(=O)O; dNMeV = CN[C@@H](C(=O)O)C(C)C; NMeNle = CCCC[C@H](NC)C(=O)O; Tle = CC(C)(C)[C@H](N)C(=O)O; NMeNva = CCC[C@H](NC)C(=O)O; NMeV = CN[C@H](C(=O)O)C(C)C; NMeA = CN[C@@H](C)C(=O)O; dNMeA = CN[C@H](C)C(=O)O; Abu = CC[C@H](N)C(=O)O; Sar = CNCC(=O)O
# Molecular target: T1, Cyclophilin A (Homo sapiens, UniProt P62937)
# T1 construct: made in house
# T1 sequence (P62937 whole entry, species assumed): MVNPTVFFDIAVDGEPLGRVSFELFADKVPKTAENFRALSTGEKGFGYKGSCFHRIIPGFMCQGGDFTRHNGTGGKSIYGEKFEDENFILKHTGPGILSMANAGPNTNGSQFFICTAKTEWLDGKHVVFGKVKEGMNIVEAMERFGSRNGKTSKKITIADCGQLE
# Test: AlphaLISA inhibition of binding of biotinylated Cyclosporin A to FLAG tagged Cyclophilin A
# Details: for % signal: AlphaLISA signal; for % signal / % inhibition of CsA binding to Cyclophilin A: test concentration not given; for IC50: read-out: IC50 value of CsA binding to Cyclophilin A
# Method in brief: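 Inhibition of biotin-CsA binding to FLAG-tagged Cyclophilin A read by AlphaLISA (ex 680, em 615 nm). Working stocks were 6 nM biotinylated CsA and 25 nM FLAG-CypA; beads and compound were combined first for 30 min, then protein added for 60 min, all at room temperature in the dark, with DMSO and cyclosporin A controls.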
% signal [%],IC50 [µM],% inhibition of CsA binding to Cyclophilin A [%],SMILES
0.27,< 2,99.73,C/C=C/C[C@@H](C)[C@@H](O)[C@H]1C(=O)N[C@@H](CC)C(=O)N(C)CC(=O)N(C)[C@@H](C(C)C)C(=O)N[C@@H](CC(C)C)C(=O)N(C)[C@@H](CC(C)C)C(=O)N[C@@H](CC(C)C)C(=O)N[C@H](C)C(=O)N(C)[C@@H](CC(C)C)C(=O)N(C)[C@@H](CC(C)C)C(=O)N(C)[C@@H](C(C)C)C(=O)N1C [Compound C65] (cyclo([MeBmt][Abu][Sar][NMeV]L[NMeL]L[dA][NMeL][NMeL][NMeV]))
10.95,< 2,89.05,C/C=C/C[C@@H](C)[C@@H](O)[C@H]1C(=O)N[C@@H](CC)C(=O)N(C)CC(=O)N(C)[C@@H](CCC)C(=O)N[C@@H](CC(C)C)C(=O)N(C)[C@@H](CC(C)C)C(=O)N[C@@H](CC(C)C)C(=O)N[C@H](C)C(=O)N(C)[C@@H](CC(C)C)C(=O)N(C)[C@@H](CC(C)C)C(=O)N(C)[C@@H](C(C)C)C(=O)N1C [Compound C66] (cyclo([MeBmt][Abu][Sar][NMeNva]L[NMeL]L[dA][NMeL][NMeL][NMeV]))
40.86,< 2,59.14,C/C=C/C[C@@H](C)[C@@H](O)[C@H]1C(=O)N[C@@H](CC)C(=O)N(C)CC(=O)N(C)[C@H](C(C)C)C(=O)N[C@@H](CC(C)C)C(=O)N(C)[C@@H](CC(C)C)C(=O)N[C@@H](CC(C)C)C(=O)N[C@H](C)C(=O)N(C)[C@@H](CC(C)C)C(=O)N(C)[C@@H](CC(C)C)C(=O)N(C)[C@@H](C(C)C)C(=O)N1C [Compound C67] (cyclo([MeBmt][Abu][Sar][dNMeV]L[NMeL]L[dA][NMeL][NMeL][NMeV]))
20.46,< 2,79.54,C/C=C/C[C@@H](C)[C@@H](O)[C@H]1C(=O)N[C@@H](CC)C(=O)N(C)CC(=O)N(C)[C@@H](CCCC)C(=O)N[C@@H](CC(C)C)C(=O)N(C)[C@@H](CC(C)C)C(=O)N[C@@H](CC(C)C)C(=O)N[C@H](C)C(=O)N(C)[C@@H](CC(C)C)C(=O)N(C)[C@@H](CC(C)C)C(=O)N(C)[C@@H](C(C)C)C(=O)N1C [Compound C68] (cyclo([MeBmt][Abu][Sar][NMeNle]L[NMeL]L[dA][NMeL][NMeL][NMeV]))
0.03,< 2,99.97,C/C=C/C[C@@H](C)[C@@H](O)[C@H]1C(=O)N[C@@H](CC)C(=O)N(C)CC(=O)N(C)[C@@H]([C@@H](C)CC)C(=O)N[C@@H](C(C)(C)C)C(=O)N(C)[C@@H](C)C(=O)N[C@@H](CC(C)C)C(=O)N[C@H](C)C(=O)N(C)[C@@H](CC(C)C)C(=O)N(C)[C@@H](CC(C)C)C(=O)N(C)[C@@H](C(C)C)C(=O)N1C [Compound C69] (cyclo([MeBmt][Abu][Sar][NMeI][Tle][NMeA]L[dA][NMeL][NMeL][NMeV]))
0.05,< 2,99.95,C/C=C/C[C@@H](C)[C@@H](O)[C@H]1C(=O)N[C@@H](CC)C(=O)N(C)CC(=O)N(C)[C@@H](C)C(=O)N[C@@H](C(C)(C)C)C(=O)N(C)[C@@H](C)C(=O)N[C@@H](CC(C)C)C(=O)N[C@H](C)C(=O)N(C)[C@@H](CC(C)C)C(=O)N(C)[C@@H](CC(C)C)C(=O)N(C)[C@@H](C(C)C)C(=O)N1C [Compound C70] (cyclo([MeBmt][Abu][Sar][NMeA][Tle][NMeA]L[dA][NMeL][NMeL][NMeV]))
−0.05,< 2,100.05,C/C=C/C[C@@H](C)[C@@H](O)[C@H]1C(=O)N[C@@H](CC)C(=O)N(C)CC(=O)N(C)[C@H](C)C(=O)N[C@@H](C(C)(C)C)C(=O)N(C)[C@@H](C)C(=O)N[C@@H](CC(C)C)C(=O)N[C@H](C)C(=O)N(C)[C@@H](CC(C)C)C(=O)N(C)[C@@H](CC(C)C)C(=O)N(C)[C@@H](C(C)C)C(=O)N1C [Compound C71] (cyclo([MeBmt][Abu][Sar][dNMeA][Tle][NMeA]L[dA][NMeL][NMeL][NMeV]))
2.78,< 2,97.22,C/C=C/C[C@@H](C)[C@@H](O)[C@H]1C(=O)N[C@@H](CC)C(=O)N(C)CC(=O)N(C)[C@@H](Cc2ccccc2)C(=O)N[C@@H](C(C)(C)C)C(=O)N(C)[C@@H](C)C(=O)N[C@@H](CC(C)C)C(=O)N[C@H](C)C(=O)N(C)[C@@H](CC(C)C)C(=O)N(C)[C@@H](CC(C)C)C(=O)N(C)[C@@H](C(C)C)C(=O)N1C [Compound C72] (cyclo([MeBmt][Abu][Sar][NMeF][Tle][NMeA]L[dA][NMeL][NMeL][NMeV]))
0.01,< 2,99.99,C/C=C/C[C@@H](C)[C@@H](O)[C@H]1C(=O)N[C@@H](CC)C(=O)N(C)CC(=O)N(C)CC(=O)N[C@@H](C(C)(C)C)C(=O)N(C)[C@@H](C)C(=O)N[C@@H](CC(C)C)C(=O)N[C@H](C)C(=O)N(C)[C@@H](CC(C)C)C(=O)N(C)[C@@H](CC(C)C)C(=O)N(C)[C@@H](C(C)C)C(=O)N1C [Compound C73] (cyclo([MeBmt][Abu][Sar][Sar][Tle][NMeA]L[dA][NMeL][NMeL][NMeV]))
4.92,< 2,95.08,C/C=C/C[C@@H](C)[C@@H](O)[C@H]1C(=O)N[C@@H](CC)C(=O)N(C)CC(=O)N(C)[C@@H](CC(C)C)C(=O)N[C@@H](C(C)(C)C)C(=O)N(C)[C@@H](C)C(=O)N[C@@H](CC(C)C)C(=O)N[C@H](C)C(=O)N(C)[C@@H](CC(C)C)C(=O)N(C)[C@@H](CC(C)C)C(=O)N(C)[C@@H](C(C)C)C(=O)N1C [Compound C74] (cyclo([MeBmt][Abu][Sar][NMeL][Tle][NMeA]L[dA][NMeL][NMeL][NMeV]))
3.88,< 2,–,C/C=C/C[C@@H](C)[C@@H](O)[C@H]1C(=O)N[C@@H](CC)C(=O)N(C)CC(=O)N(C)[C@@H]([C@@H](C)O)C(=O)N[C@@H](C(C)(C)C)C(=O)N(C)[C@@H](C)C(=O)N[C@@H](CC(C)C)C(=O)N[C@H](C)C(=O)N(C)[C@@H](CC(C)C)C(=O)N(C)[C@@H](CC(C)C)C(=O)N(C)[C@@H](C(C)C)C(=O)N1C [Compound C75] (cyclo([MeBmt][Abu][Sar][NMeT][Tle][NMeA]L[dA][NMeL][NMeL][NMeV]))
5.09,< 2,94.91,C/C=C/C[C@@H](C)[C@@H](O)[C@H]1C(=O)N[C@@H](CC)C(=O)N(C)CC(=O)N(C)[C@@H](Cc2ccc(O)cc2)C(=O)N[C@@H](C(C)(C)C)C(=O)N(C)[C@@H](C)C(=O)N[C@@H](CC(C)C)C(=O)N[C@H](C)C(=O)N(C)[C@@H](CC(C)C)C(=O)N(C)[C@@H](CC(C)C)C(=O)N(C)[C@@H](C(C)C)C(=O)N1C [Compound C76] (cyclo([MeBmt][Abu][Sar][NMeY][Tle][NMeA]L[dA][NMeL][NMeL][NMeV]))
0.44,< 2,–,C/C=C/C[C@@H](C)[C@@H](O)[C@H]1C(=O)N[C@@H](CC)C(=O)N(C)CC(=O)N(C)[C@@H](C(C)C)C(=O)N[C@@H](C(C)(C)C)C(=O)N(C)[C@@H](C)C(=O)N[C@@H](CC(C)C)C(=O)N[C@H](C)C(=O)N(C)[C@@H](CC(C)C)C(=O)N(C)[C@@H](CC(C)C)C(=O)N(C)[C@@H](C(C)C)C(=O)N1C [Compound C77] (cyclo([MeBmt][Abu][Sar][NMeV][Tle][NMeA]L[dA][NMeL][NMeL][NMeV]))
1.42,< 2,98.58,C/C=C/C[C@@H](C)[C@@H](O)[C@H]1C(=O)N[C@@H](CC)C(=O)N(C)CC(=O)N(C)[C@@H](CCC)C(=O)N[C@@H](C(C)(C)C)C(=O)N(C)[C@@H](C)C(=O)N[C@@H](CC(C)C)C(=O)N[C@H](C)C(=O)N(C)[C@@H](CC(C)C)C(=O)N(C)[C@@H](CC(C)C)C(=O)N(C)[C@@H](C(C)C)C(=O)N1C [Compound C78] (cyclo([MeBmt][Abu][Sar][NMeNva][Tle][NMeA]L[dA][NMeL][NMeL][NMeV]))
3.24,< 2,96.76,C/C=C/C[C@@H](C)[C@@H](O)[C@H]1C(=O)N[C@@H](CC)C(=O)N(C)CC(=O)N(C)[C@H](C(C)C)C(=O)N[C@@H](C(C)(C)C)C(=O)N(C)[C@@H](C)C(=O)N[C@@H](CC(C)C)C(=O)N[C@H](C)C(=O)N(C)[C@@H](CC(C)C)C(=O)N(C)[C@@H](CC(C)C)C(=O)N(C)[C@@H](C(C)C)C(=O)N1C [Compound C79] (cyclo([MeBmt][Abu][Sar][dNMeV][Tle][NMeA]L[dA][NMeL][NMeL][NMeV]))
3.35,< 2,96.65,C/C=C/C[C@@H](C)[C@@H](O)[C@H]1C(=O)N[C@@H](CC)C(=O)N(C)CC(=O)N(C)[C@@H](CCCC)C(=O)N[C@@H](C(C)(C)C)C(=O)N(C)[C@@H](C)C(=O)N[C@@H](CC(C)C)C(=O)N[C@H](C)C(=O)N(C)[C@@H](CC(C)C)C(=O)N(C)[C@@H](CC(C)C)C(=O)N(C)[C@@H](C(C)C)C(=O)N1C [Compound C80] (cyclo([MeBmt][Abu][Sar][NMeNle][Tle][NMeA]L[dA][NMeL][NMeL][NMeV]))

SMILES,% signal [%],IC50 [µM],% inhibition of CsA binding to Cyclophilin A [%]
C/C=C/C[C@@H](C)[C@@H](O)[C@H]1C(=O)N[C@@H](CC)C(=O)N(C)CC(=O)N(C)[C@@H]([C@@H](C)CC)C(=O)N[C@@H](C(C)C)C(=O)N(C)[C@@H](C)C(=O)N[C@@H](CC(C)C)C(=O)N[C@H](C)C(=O)N(C)[C@@H](CC(C)C)C(=O)N(C)[C@@H](CC(C)C)C(=O)N(C)[C@@H](C(C)C)C(=O)N1C [Compound C81] (cyclo([MeBmt][Abu][Sar][NMeI]V[NMeA]L[dA][NMeL][NMeL][NMeV])),0.76,< 2,99.24
